Laboratory results reported in ChEMBL document CHEMBL2074471, “Electrogenic properties and substrate specificity of the polyspecific rat cation transporter rOCT1” (J Biol Chem, 1996).

T1: Solute carrier family 22 member 1 (Rattus norvegicus, UniProt Q63089)
T1 sequence (Q63089 whole entry): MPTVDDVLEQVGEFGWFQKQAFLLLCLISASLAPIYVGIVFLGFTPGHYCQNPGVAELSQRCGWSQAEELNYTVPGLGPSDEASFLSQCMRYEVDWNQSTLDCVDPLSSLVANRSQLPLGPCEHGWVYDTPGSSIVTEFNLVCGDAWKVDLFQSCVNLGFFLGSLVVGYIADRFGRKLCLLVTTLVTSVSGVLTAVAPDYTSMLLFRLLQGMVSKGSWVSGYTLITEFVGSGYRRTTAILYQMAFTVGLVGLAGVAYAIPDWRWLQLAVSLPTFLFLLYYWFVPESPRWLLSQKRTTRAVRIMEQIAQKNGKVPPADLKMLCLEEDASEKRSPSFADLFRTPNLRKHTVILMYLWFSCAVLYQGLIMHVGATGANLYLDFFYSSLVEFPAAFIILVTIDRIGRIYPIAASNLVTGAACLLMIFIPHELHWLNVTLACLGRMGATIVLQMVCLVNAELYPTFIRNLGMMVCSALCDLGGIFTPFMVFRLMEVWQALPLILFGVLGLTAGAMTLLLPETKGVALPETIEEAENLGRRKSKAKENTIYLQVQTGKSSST

B1: Solute carrier family 22 member 1 (Rattus norvegicus) (protein)
chain: T1 sequence (Q63089 whole entry)

Legend:
[1] = biological target: T1, Solute carrier family 22 member 1; assay: TP_TRANSPORTER: uptake (electrogenesis) in Xenopus laevis oocytes; format: functional, cell-based; conditions: oocyte
[2] = substrate: C[n+]1ccc(-c2ccccc2)cc1; assay: (§1) TP_TRANSPORTER: uptake in Xenopus laevis oocytes; format: functional, cell-based, Oocyte
[3] = substrate: CNC(=O)c1cccnc1; assay: as §1; format: functional, cell-based, Oocyte
[4] = substrate: CC[N+](CC)(CC)CC; assay: cells, lysate or membranes named

| Molecule | Activity [1] | Km [2] [µM] | Km [3] [µM] | Km [4] [µM] |
| --- | --- | --- | --- | --- |
| CC[n+]1c(CC2C=C(C)N=C(c3ccccc3)N2C)ccc2ccccc21.[Cl-] (configuration not stated) [Cyanine-863] | substrate [+] | – | – | – |
| CC(=O)O[C@H]1C[C@@H]2CC[C@@H]3[C@H](CC[C@@]4(C)[C@H]3C[C@H]([N+]3(C)CCCCC3)[C@@H]4OC(C)=O)[C@@]2(C)C[C@@H]1[N+]1(C)CCCCC1 [PANCURONIUM] | substrate [+] | – | – | – |
| NCCCCNCCCN [SPERMIDINE] | substrate [+] | – | – | – |
| NCCCNCCCCNCCCN [SPERMINE] | substrate [+] | – | – | – |
| B1 | – | 9.6 | 340 | 35 |
